Tested on: MV-4-11 cells
Assay: Gene expression microarray analysis (Affymetrix PrimeView) and GSEA
Assay type: cell-based, human
Set-up: RFU PODN (11730768_x_at) / Fold change /veh PODN (11730768_x_at) / RFU LINC00158 (11744669_a_at) / Fold change /veh LINC00158 (11744669_a_at) / RFU DUSP10 (11751237_a_at) / Fold change /veh DUSP10 (11751237_a_at) / RFU ID3 (11757404_x_at) / Fold change /veh ID3 (11757404_x_at) / RFU PLEKHG5 (11737974_s_at) / Fold change /veh PLEKHG5 (11737974_s_at) / RFU LRRC4B (11730491_at) / Fold change /veh LRRC4B (11730491_at) / RFU GIMAP4 (11747438_a_at) / Fold change /veh GIMAP4 (11747438_a_at) / RFU KRT8 (11758183_x_at) / Fold change /veh KRT8 (11758183_x_at) / RFU CNN1 (11734310_a_at) / Fold change /veh CNN1 (11734310_a_at) / RFU VPS37D (11726825_at) / Fold change /veh VPS37D (11726825_at) / RFU C10orf10 (11716522_x_at) / Fold change /veh C10orf10 (11716522_x_at) / RFU KIR2DL2 /// KIR2DL4 /// KIR2DL5A /// KIR2DL5B /// KIR2DS1 /// KIR2DS2 /// KIR2DS3 /// KIR2DS4 /// KIR3DL3 /// KIR3DL3 /// KIR3DS1 (11738374_at) / Fold change /veh KIR2DL2 /// KIR2DL4 /// KIR2DL5A /// KIR2DL5B /// KIR2DS1 /// KIR2DS2 /// KIR2DS3 /// KIR2DS4 /// KIR3DL3 /// KIR3DL3 /// KIR3DS1 (11738374_at) / RFU C1QL1 (11718748_at) / Fold change /veh C1QL1 (11718748_at) / RFU TMPRSS4 (11747572_a_at) / Fold change /veh TMPRSS4 (11747572_a_at) / RFU HAMP (11756126_x_at) / Fold change /veh HAMP (11756126_x_at) / RFU RNFT2 (11725882_a_at) / Fold change /veh RNFT2 (11725882_a_at) / RFU NR4A2 (11747474_a_at) / Fold change /veh NR4A2 (11747474_a_at) / RFU ABCC12 (11746883_a_at) / Fold change /veh ABCC12 (11746883_a_at) / RFU TMEM136 (11760407_x_at) / Fold change /veh TMEM136 (11760407_x_at) / RFU CLDN22 /// WWC2 (11732394_at) / Fold change /veh CLDN22 /// WWC2 (11732394_at) / RFU HLA-DPB1 (11760878_x_at) / Fold change /veh HLA-DPB1 (11760878_x_at) / RFU SPINT1 (11716480_a_at) / Fold change /veh SPINT1 (11716480_a_at) / RFU GAP43 (11754022_s_at) / Fold change /veh GAP43 (11754022_s_at) / RFU A4GNT (11735810_at) / Fold change /veh A4GNT (11735810_at) / RFU PRB3 (11715151_x_at) / Fold change /veh PRB3 (11715151_x_at) / RFU TUBB4B (11761932_at) / Fold change /veh TUBB4B (11761932_at) / RFU CAPN14 (11732068_a_at) / Fold change /veh CAPN14 (11732068_a_at) / RFU TMCC2 (11721928_a_at) / Fold change /veh TMCC2 (11721928_a_at) / RFU IRGQ (11745062_a_at) / Fold change /veh IRGQ (11745062_a_at) / RFU FAM174B (11720279_a_at) / Fold change /veh FAM174B (11720279_a_at) / RFU TMPRSS4 (11748680_a_at) / Fold change /veh TMPRSS4 (11748680_a_at) / RFU FAM212B (11763350_a_at) / Fold change /veh FAM212B (11763350_a_at) / RFU PLEKHG5 (11743358_a_at) / Fold change /veh PLEKHG5 (11743358_a_at) / RFU ZSCAN30 (11745921_a_at) / Fold change /veh ZSCAN30 (11745921_a_at) / RFU CMKLR1 (11741424_a_at) / Fold change /veh CMKLR1 (11741424_a_at) / RFU LOC101060620 /// MAPK8IP1 (11723275_at) / Fold change /veh LOC101060620 /// MAPK8IP1 (11723275_at) / RFU SPTSSB (11747773_x_at) / Fold change /veh SPTSSB (11747773_x_at) / RFU PRSS12 (11739890_at) / Fold change /veh PRSS12 (11739890_at) / RFU BIN1 (11741810_x_at) / Fold change /veh BIN1 (11741810_x_at) / RFU WNT11 (11732464_a_at) / Fold change /veh WNT11 (11732464_a_at) / RFU C10orf10 (11716521_a_at) / Fold change /veh C10orf10 (11716521_a_at) / RFU C5orf56 (11738089_at) / Fold change /veh C5orf56 (11738089_at) / RFU CYB561 (11721691_x_at) / Fold change /veh CYB561 (11721691_x_at) / RFU ANKRD19P (11752326_a_at) / Fold change /veh ANKRD19P (11752326_a_at) / RFU OR2T12 /// OR2T33 /// OR2T8 (11738714_s_at) / Fold change /veh OR2T12 /// OR2T33 /// OR2T8 (11738714_s_at) / RFU VCAN (11748164_a_at) / Fold change /veh VCAN (11748164_a_at) / RFU JSRP1 (11732532_at) / Fold change /veh JSRP1 (11732532_at) / RFU KRTAP10-11 (11738290_x_at) / Fold change /veh KRTAP10-11 (11738290_x_at) / RFU MYO3A (11730013_a_at) / Fold change /veh MYO3A (11730013_a_at) / RFU EBF3 (11725865_a_at) / Fold change /veh EBF3 (11725865_a_at) / RFU CAMK2N1 (11719241_x_at) / Fold change /veh CAMK2N1 (11719241_x_at) / RFU C5orf56 (11738088_a_at) / Fold change /veh C5orf56 (11738088_a_at) / RFU OLFML3 (11715873_a_at) / Fold change /veh OLFML3 (11715873_a_at) / RFU LOC100653217 /// NTM (11731650_a_at) / Fold change /veh LOC100653217 /// NTM (11731650_a_at) / RFU MAPK11 (11762145_a_at) / Fold change /veh MAPK11 (11762145_a_at) / RFU FIZ1 (11724087_x_at) / Fold change /veh FIZ1 (11724087_x_at) / RFU OASL (11726364_x_at) / Fold change /veh OASL (11726364_x_at) / RFU SOX15 (11748057_x_at) / Fold change /veh SOX15 (11748057_x_at) / RFU CD79A (11719716_a_at) / Fold change /veh CD79A (11719716_a_at) / RFU HIST1H1D (11736915_at) / Fold change /veh HIST1H1D (11736915_at) / RFU CASKIN2 (11723855_a_at) / Fold change /veh CASKIN2 (11723855_a_at) / RFU LOC730098 (11760151_x_at) / Fold change /veh LOC730098 (11760151_x_at) / RFU OR4N2 (11742367_at) / Fold change /veh OR4N2 (11742367_at) / RFU PRRT2 (11749266_a_at) / Fold change /veh PRRT2 (11749266_a_at) / RFU SNX32 (11753110_a_at) / Fold change /veh SNX32 (11753110_a_at) / RFU CDHR5 (11726645_a_at) / Fold change /veh CDHR5 (11726645_a_at) / RFU RCAN1 (11760418_a_at) / Fold change /veh RCAN1 (11760418_a_at) / RFU FAM167A (11723789_a_at) / Fold change /veh FAM167A (11723789_a_at) / RFU FAM26E (11764081_at) / Fold change /veh FAM26E (11764081_at) / RFU ISYNA1 (11749810_s_at) / Fold change /veh ISYNA1 (11749810_s_at) / RFU ACY1 (11761880_at) / Fold change /veh ACY1 (11761880_at) / RFU 11764098_at / Fold change /veh 11764098_at / RFU SAMD14 (11745864_x_at) / Fold change /veh SAMD14 (11745864_x_at) / RFU NPB (11741838_a_at) / Fold change /veh NPB (11741838_a_at) / RFU TMPRSS6 (11731388_a_at) / Fold change /veh TMPRSS6 (11731388_a_at) / RFU KRTAP10-2 (11738614_at) / Fold change /veh KRTAP10-2 (11738614_at) / RFU ARHGAP8 /// PRR5-ARHGAP8 (11727945_x_at) / Fold change /veh ARHGAP8 /// PRR5-ARHGAP8 (11727945_x_at) / RFU KRTAP5-7 /// NADSYN1 (11734609_at) / Fold change /veh KRTAP5-7 /// NADSYN1 (11734609_at) / RFU RASL12 (11751679_a_at) / Fold change /veh RASL12 (11751679_a_at) / RFU CDKN2B (11736163_a_at) / Fold change /veh CDKN2B (11736163_a_at) / RFU PRF1 (11729649_at) / Fold change /veh PRF1 (11729649_at) / RFU, ZNF638 /// ZNF638-IT1 / Fold change vs veh, ZNF638 /// ZNF638-IT1 / RFU, PANK3 / Fold change vs veh, PANK3 / RFU, SH3YL1 / Fold change vs veh, SH3YL1 / RFU, ZEB2 / Fold change vs veh, ZEB2 / RFU, NRIP1 / Fold change vs veh, NRIP1 / RFU, PTTG1IP / Fold change vs veh, PTTG1IP / RFU, CAPN2 / Fold change vs veh, CAPN2 / RFU, MED14 / Fold change vs veh, MED14 / RFU, SNORA58 / Fold change vs veh, SNORA58 / RFU, C1orf63 / Fold change vs veh, C1orf63 / RFU, LRRFIP1 / Fold change vs veh, LRRFIP1 / RFU, NDUFAF7 / Fold change vs veh, NDUFAF7 / RFU, SLC12A2 / Fold change vs veh, SLC12A2 / RFU, IBTK / Fold change vs veh, IBTK / RFU, ESF1 / Fold change vs veh, ESF1 / Fold change vs veh, TMEM50B / RFU, TAOK1 / Fold change vs veh, TAOK1 / RFU, ACBD3 / Fold change vs veh, ACBD3 / RFU, TMA16 / Fold change vs veh, TMA16 / RFU, RWDD3 / Fold change vs veh, RWDD3 / RFU, BCAT1 / Fold change vs veh, BCAT1 / RFU, EDEM3 / Fold change vs veh, EDEM3 / RFU, TMEM33 / Fold change vs veh, TMEM33 / RFU, WDR75 / Fold change vs veh, WDR75 / RFU, AHCTF1 / Fold change vs veh, AHCTF1 / RFU, TFRC / Fold change vs veh, TFRC / RFU, ZDHHC17 / Fold change vs veh, ZDHHC17 / RFU, NOM1 / Fold change vs veh, NOM1 / RFU, ARL8B / Fold change vs veh, ARL8B / RFU, ZBTB11 / Fold change vs veh, ZBTB11 / RFU, TAMM41 / Fold change vs veh, TAMM41 / RFU, KIAA1704 /// LOC100996395 / Fold change vs veh, KIAA1704 /// LOC100996395 / RFU, ING1 / Fold change vs veh, ING1 / RFU, TRMT61B / Fold change vs veh, TRMT61B / RFU, FUBP3 / Fold change vs veh, FUBP3 / RFU, TP53 / Fold change vs veh, TP53 / RFU, TNKS2 / Fold change vs veh, TNKS2 / RFU, ZFP14 / Fold change vs veh, ZFP14 / RFU, ACTR2 / Fold change vs veh, ACTR2 / RFU, PPP3R1 / Fold change vs veh, PPP3R1 / RFU, PIK3R1 / Fold change vs veh, PIK3R1 / RFU, HNRNPA1 / Fold change vs veh, HNRNPA1 / RFU, RNF170 / Fold change vs veh, RNF170 / RFU, ZNF28 / Fold change vs veh, ZNF28 / RFU, RNGTT / Fold change vs veh, RNGTT / RFU, OGT / Fold change vs veh, OGT / RFU, BRD1 / Fold change vs veh, BRD1 / RFU, MARS / Fold change vs veh, MARS / RFU, ZNF655 / Fold change vs veh, ZNF655 / RFU, FAHD1 / Fold change vs veh, FAHD1 / RFU, BDP1 / Fold change vs veh, BDP1 / RFU, LRRCC1 / Fold change vs veh, LRRCC1 / RFU, ARID1A / Fold change vs veh, ARID1A / RFU, ZNF146 / Fold change vs veh, ZNF146 / RFU, ZNF330 / Fold change vs veh, ZNF330 / RFU, GPN3 / Fold change vs veh, GPN3 / RFU, C9orf123 / Fold change vs veh, C9orf123 / RFU, N4BP2L2 / Fold change vs veh, N4BP2L2 / RFU, ARFIP1 / Fold change vs veh, ARFIP1 / RFU, FAM179B / Fold change vs veh, FAM179B / RFU, BCL10 / Fold change vs veh, BCL10 / RFU, UHRF1BP1L / Fold change vs veh, UHRF1BP1L / RFU, BET1 / Fold change vs veh, BET1 / RFU, CNOT2 / Fold change vs veh, CNOT2 / RFU, ZNF268 / Fold change vs veh, ZNF268 / Fold change vs veh, ZNF507 / RFU, DGCR2 / Fold change vs veh, DGCR2 / RFU, WDSUB1 / Fold change vs veh, WDSUB1 / Fold change vs veh, HSP90B1 /// MIR3652 / RFU, ADSS / Fold change vs veh, ADSS / RFU, GK / Fold change vs veh, GK / RFU, ZNF148 / Fold change vs veh, ZNF148 / RFU, TAF9 / Fold change vs veh, TAF9 / RFU, SLC1A5 / Fold change vs veh, SLC1A5 / RFU, SLMO2 / Fold change vs veh, SLMO2 / RFU, ABCC4 / Fold change vs veh, ABCC4 / RFU, LOC101060439 /// RAP1B / Fold change vs veh, LOC101060439 /// RAP1B / RFU, RFX7 / Fold change vs veh, RFX7 / RFU, GTPBP10 / Fold change vs veh, GTPBP10 / RFU, CNEP1R1 / Fold change vs veh, CNEP1R1 / RFU, BIVM-ERCC5 /// ERCC5 / Fold change vs veh, BIVM-ERCC5 /// ERCC5 / RFU, ILF3 / Fold change vs veh, ILF3 / RFU 11762660_at / Fold change /veh 11762660_at / RFU VCAN (11757783_s_at) / Fold change /veh VCAN (11757783_s_at) / RFU DDX43 (11728927_at) / Fold change /veh DDX43 (11728927_at) / RFU KRT8 (11758188_x_at) / Fold change /veh KRT8 (11758188_x_at) / RFU NKD1 (11759106_at) / Fold change /veh NKD1 (11759106_at) / RFU SRD5A1 (11742802_a_at) / Fold change /veh SRD5A1 (11742802_a_at) / RFU TPSAB1 /// TPSB2 (11721975_s_at) / Fold change /veh TPSAB1 /// TPSB2 (11721975_s_at) / RFU GSTM3 (11746129_a_at) / Fold change /veh GSTM3 (11746129_a_at) / RFU IL23R (11737362_x_at) / Fold change /veh IL23R (11737362_x_at) / RFU TMEM51 (11727254_a_at) / Fold change /veh TMEM51 (11727254_a_at) / RFU PIWIL2 (11732686_x_at) / Fold change /veh PIWIL2 (11732686_x_at) / RFU ORM1 (11744905_x_at) / Fold change /veh ORM1 (11744905_x_at) / RFU CCDC152 (11743942_at) / Fold change /veh CCDC152 (11743942_at) / RFU ECM1 (11717891_a_at) / Fold change /veh ECM1 (11717891_a_at) / RFU IL23R (11748794_a_at) / Fold change /veh IL23R (11748794_a_at) / RFU TNFAIP8L3 (11732012_x_at) / Fold change /veh TNFAIP8L3 (11732012_x_at) / RFU MBOAT4 (11741988_at) / Fold change /veh MBOAT4 (11741988_at) / RFU 11764193_at / Fold change /veh 11764193_at / RFU TMEM53 (11763286_at) / Fold change /veh TMEM53 (11763286_at) / RFU MAGEB2 (11727129_at) / Fold change /veh MAGEB2 (11727129_at) / RFU TMEM200A (11744735_a_at) / Fold change /veh TMEM200A (11744735_a_at) / RFU CCDC152 (11751479_a_at) / Fold change /veh CCDC152 (11751479_a_at) / RFU FAM211A (11726209_a_at) / Fold change /veh FAM211A (11726209_a_at) / RFU RGS16 (11746705_a_at) / Fold change /veh RGS16 (11746705_a_at) / RFU VCAN (11755009_s_at) / Fold change /veh VCAN (11755009_s_at) / RFU RHOB (11743442_s_at) / Fold change /veh RHOB (11743442_s_at) / RFU RGS16 (11720943_a_at) / Fold change /veh RGS16 (11720943_a_at) / RFU RGS16 (11720944_at) / Fold change /veh RGS16 (11720944_at) / RFU, VPS4B / Fold change vs veh, VPS4B / RFU, CREB1 / Fold change vs veh, CREB1 / RFU, DNAJC13 / Fold change vs veh, DNAJC13 / RFU, GNAQ / Fold change vs veh, GNAQ / RFU, CDK5R1 / Fold change vs veh, CDK5R1 / RFU, ZRANB3 / Fold change vs veh, ZRANB3 / RFU, CUL4A / Fold change vs veh, CUL4A / RFU, CCNY / Fold change vs veh, CCNY / RFU, UFL1 / Fold change vs veh, UFL1 / RFU, COG3 / Fold change vs veh, COG3 / RFU, DIAPH2 / Fold change vs veh, DIAPH2 / RFU, SKA2 / Fold change vs veh, SKA2 / RFU, AFF3 / Fold change vs veh, AFF3 / RFU, LMF1 / Fold change vs veh, LMF1 / RFU, IPO11 / Fold change vs veh, IPO11 / RFU, DFFB / Fold change vs veh, DFFB / RFU, FOXP1 / Fold change vs veh, FOXP1 / RFU, CARD8 / Fold change vs veh, CARD8 / RFU, STRN3 / Fold change vs veh, STRN3 / RFU, ADK / Fold change vs veh, ADK / RFU, RASSF2 / Fold change vs veh, RASSF2 / RFU, WIPF1 / Fold change vs veh, WIPF1 / RFU, LARP1B / Fold change vs veh, LARP1B / RFU, RASA1 / Fold change vs veh, RASA1 / RFU, RB1 / Fold change vs veh, RB1 / RFU, PPFIA1 / Fold change vs veh, PPFIA1 / RFU, MAT2A / Fold change vs veh, MAT2A / RFU, CCT5 / Fold change vs veh, CCT5 / RFU, WDR92 / Fold change vs veh, WDR92 / RFU, CUX1 / Fold change vs veh, CUX1 / RFU, TTC7A / Fold change vs veh, TTC7A / RFU, TMEM135 / Fold change vs veh, TMEM135 / RFU, DEPTOR / Fold change vs veh, DEPTOR / RFU, CPM / Fold change vs veh, CPM / RFU, DNAJB6 / Fold change vs veh, DNAJB6 / RFU, CACNA2D3 / Fold change vs veh, CACNA2D3 / RFU, DTX4 / Fold change vs veh, DTX4 / RFU, TFCP2 / Fold change vs veh, TFCP2 / RFU, GMCL1 /// GMCL1P1 / Fold change vs veh, GMCL1 /// GMCL1P1 / RFU, AEBP2 / Fold change vs veh, AEBP2 / RFU, SNHG1 /// SNORD22 /// SNORD25 /// SNORD26 /// SNORD27 /// SNORD28 /// SNORD29 /// SNORD31 / Fold change vs veh, SNHG1 /// SNORD22 /// SNORD25 /// SNORD26 /// SNORD27 /// SNORD28 /// SNORD29 /// SNORD31 / Fold change (Aza/veh), C12orf56 (ProbeSet 11735607_a_at) / Fold change (ACY-1035/veh), C12orf56 (ProbeSet 11735607_a_at) / Fold change (Aza/veh), FGFR1OP (ProbeSet 11751329_s_at) / Fold change (ACY-1035/veh), FGFR1OP (ProbeSet 11751329_s_at) / Fold change (Aza/veh), VPS36 (ProbeSet 11739960_a_at) / Fold change (ACY-1035/veh), VPS36 (ProbeSet 11739960_a_at) / RFU SYPL1 (11715823_x_at) / Fold change /veh SYPL1 (11715823_x_at) / RFU IGFBP7 (11715501_s_at) / Fold change /veh IGFBP7 (11715501_s_at) / RFU REEP3 (11722064_at) / Fold change /veh REEP3 (11722064_at) / RFU IGLL1 (11728026_x_at) / Fold change /veh IGLL1 (11728026_x_at): dose or concentration left out as unconfirmed
Conditions: ProbeSet 11739696_s_at; LIST D

Q: `Nc1ccc(-c2cccs2)cc1NC(=O)c1ccc2c(c1)cc(C1CC1)n2CCN1CCOCC1` [ACY-1035] was tested. Which “RFU, AFF3” value did it give?
A: 669.34 RFU
